These results are taken from patent publication US7026344B2, “Treating sickle cell disease” (priority 2000, dated 2006).

Assay [1] concerns primary erythroid progenitors (BFU-E colonies) from Hb SS patients. Nature of the assay: BFU-E colony growth in methylcellulose culture, Hb SS patients. It is filed as cell-based, human. The settings on record: for fold decrease in BFU-E colony number: 0 versus 100 μM, Hb SS patients; for BFU-E Difference: 0 vs 100 μM, sickle cell patients. As for the experimental part: (§1) BFU-E Colony Growth. Mononuclear cells were isolated from the peripheral blood of each patient studied by density gradient centrifugation using Histapaque-1077 (Sigma). Erythroid progenitors were obtained in methylcellulose culture. ZL was added on day 0 at 25, 50, 75, or 100 μM concentrations for 13–14 days at which time the number of BFU-E colonies were counted on an inverted microscope and harvested for hemoglobin determinations.
The capability of ZL to induce hemoglobin F in primary erythroid progenitors, grown from peripheral blood mononuclear cells (MNC) was analyzed. BFU-E colonies were grown in methylcellulose cultures supplemented with erthyopoietin and interleukin-3 and ZL at concentration from 0 to 100 μM. Three patients homozygous for hemoglobin S (Hb SS) were analyzed with triplicate experiments. The average BFU-E colony number was 123.2±18.6 without ZL compared to 10.6±2.0 at 100 μM concentrations, p<0.05 (Table 1). […] All pair-wise comparisons for BFU-E and hemoglobin F between 0μ and other concentrations (25, 50, 75 and 100 μM) were significant at p<0.05. The correlation coefficient between the number of BFU-E colonies or percent hemoglobin F and different levels of ZL is −0.90 and +0.79, respectively (p<0.05). […] (See Yang et al., BFU-E colony growth in response to hydroxyurea: correlation between in vitro and in vivo fetal hemoglobin induction. Am J Hematol. 1997; 56:252–258). […] HU either was more efficient in inhibiting BFU-E colony growth or alternatively the baseline number of colonies on an average was higher for the Hb SS patients in the HU cohort.

In assay [2] the test system is fetal hemoglobin production in normal erythroid progenitors. Nature of the assay: Hemoglobin F determination in erythroid progenitors, normal donors. It counts as cell-based, human. How it is done:
as §1
Hemoglobin F determination. The erythroid progenitors were collected, washed in PBS then lysed at room temperature in 200 μl of water. The supernatant was split into two tubes, one for total hemoglobin determination and one for hemoglobin F determination. In brief, IgG (10 μl), 1.2 N NaOH (7 μl) and saturated (NH4)2SO4 (70 μl) were added to the hemoglobin F sample. The denatured hemoglobin was pelleted and the supernatant containing hemoglobin F was mixed with 500 μl of tetramethyl benzidine and 500 μl of H2O2 at room temperature then quantitated on a spectrophotometer at 600 nm. The percentage of fetal hemoglobin to total hemoglobin was determined.
The cytotoxic effect of HU as been proposed as a basic mechanism involved in hemoglobin F induction. […] Utilizing the same protocol, BFU-E colonies from normal donors wee analyzed in the presence of ZL at 0 to 100 μM concentrations. […]

Assay [3] concerns human γ (Huγ) mRNA in K562 cells. Nature of the assay: γ globin mRNA induction in K562 cells by RNase protection assay. It is filed as cell-based. The settings on record: K562, 48 hours, normalized to GAPD vs untreated. As for the experimental part:
Cell Culture. K562 cells were grown in suspension cultures in RPMI-1640 containing 10% fetal bovine serum, penicillin (100 U/ml) and streptomycin (0.1 mg/ml in a humidified incubator at 37° C. in a 5%CO2/95% air atmosphere. The following experimental conditions were analyzed in triplicate with 2×10^6 cells per well: an untreated control, ZL dissolved in 0.1% dimethylsulfoximide (DMSO) at final concentrations of […], HU at […] and two positive controls hemin (50 mM) and sodium butyrate (NB) 2 mM. The K562 cells were induced for 72 hours then RNA isolated for further analysis. Cell viability was completed by 2% trypan blue exclusion at timnes 0 and 72 hours.
RNA Isolation. RNA was isolated using RNA Stat-60 (TEL-TEST “B”, Inc., Friendswood, Tex.) according to the manufacturer's instructions. In brief, cell pellets will be suspended in RNA Stat-60 (1 ml) and chloroform (200 μl), and the RNA extracted and precipitated with isopropanol.
RNase Protection Analysis. MRNA levels will be quantitated by RNase protection assay (RPA) with probes designed to yield protected fragments for human γ (Huγ)and the internal control glyceraldehydes-3-phosphate dehydrogenase (GAPD). Huγ mRNA levels were normalized to that of GAPD and compared to the untreated K562 cells. (Zar: Statistical Analysis, Englewood)
Several pharmacological hemoglobin F inducers such as HU, 5-azacytidine, erythropoietin, didox, and butyrate alter γ gene expression in culture. The induction of γ gene activity in culture is a good indicator of potential clinical usefulness. Therefore the capability of ZL to induce γ gene activity at the mRNA level was tested. K562 cells were cultured in ZL from 0 to 100 μM or HU (50μ to 100 μM) for 48 hours. Total cellular RNA was analyzed by RPA for γ mRNA levels. An increase in γ mRNA for ZL at 20 μM with a maximal response at 75 μM (FIG. 4A) was observed. The level of γ gene mRNA synthesis was quantitated relative to the internal control, CAPD. […] K562 cell viability was decreased 10% when measured using trypan blue exclusion at 75 μM and 100 μM concentrations for both ZL and HU. The level of γ gene induction was 3.9 fold and 10-fold for the positive controls NB and hemin, respectively.

Assay [4] has as its system erythroid progenitors (BFU-E colonies) from normal donors. Nature of the assay: BFU-E colony growth in methylcellulose culture, normal donors. It counts as cell-based, human. As for the experimental part:
as §1
The cytotoxic effect of HU as been proposed as a basic mechanism involved in hemoglobin F induction. In the absence of this characteristic for ZL, whether γ gene expression would be, induced in erythroid progenitors obtained from normal donors was tested. Utilizing the same protocol, BFU-E colonies from normal donors wee analyzed in the presence of ZL at 0 to 100 μM concentrations. In normal erythroid progenitors, a decrease in BFU-E colony number from 94±30.6 to 10.1±2.4 (FIG. 3A) and an increase in hemoglobin F from 1.4±0.05% to […] (FIG. 3B) was observed. This pattern was similar to that obtained for Hb SS progenitors. Of note is the lower average BFU-E colony number for hemoglobin A progenitors as compared with hemoglobin S. This probably reflects the absence of hemolysis and increased RBC production in normals as compared to sickle cell patients. This represents a 9.3-fold decrease and a 4.3-fold increase in BFU-E and hemoglobin F, respectively.

In assay [5] the test system is fetal hemoglobin production in primary erythroid progenitors from Hb SS patients. As to conditions: HU 100 μM, Hb SS patients of the HU cohort (Yang et al.); cited from earlier work.
Assay [6] relates to primary erythroid progenitors (BFU-E colonies) from Hb SS patients. The settings on record: HU 100 μM, Hb SS patients of the HU cohort (Yang et al.); cited from earlier work.

Values joined by “and” are separate entries in the source; they are usually repeats but may differ in a detail not shown here. Identical values can stand only once. Like-named read-outs stand apart in the source and are kept apart here.

Consider `CC(c1cc2ccccc2s1)N(O)C(N)=O` (racemic) [ZL, (±)-1-(1-Benzo[b]thien-2-ylethyl)-1-hydroxyurea], for which, in assay [1], the “fold decrease in BFU-E colony number” value was 11.7 fold. For the same compound, the “BFU-E Difference” value in assay [1] is 112.6 ± 19.1. Further, the BFU-E is 137 and 61 and 91 in assay [1] (zileuton 25 μM, individual Hb SS patients (No. 1-3), colony number, 13–14 days); 96.4 ± 11.1 in assay [1] (zileuton 25 μM, mean ± SEM of three Hb SS patients); 62 and 47 and 72 in assay [1] (zileuton 50 μM, individual Hb SS patients (No. 1-3), colony number); 60.4 ± 4.3 in assay [1] (zileuton 50 μM, mean ± SEM of three Hb SS patients); 23 and 27 and 43 in assay [1] (zileuton 75 μM, individual Hb SS patients (No. 1-3), colony number); 31.1 ± 3.2 in assay [1] (zileuton 75 μM, mean ± SEM of three Hb SS patients). Also, the BFU-E was 13 and 12 and 7 in assay [1] (zileuton 100 μM, individual Hb SS patients (No. 1-3), colony number); 10.6±2.0 and 10.5 in assay [1] (zileuton 100 μM, mean of three Hb SS patients); 10.5 ± 1.3 in assay [1] (zileuton 100 μM, mean of three Hb SS patients, listed as zileuton). Besides, the “fold increase in hemoglobin F” value in assay [2] (ZL 0 vs 100 μM) is 4.3 fold. The “hemoglobin F” value in assay [2] (ZL 100 μM) was 6.0%. In assay [3] (ZL 20 μM), the “fold increase in γ mRNA” value was determined as 2.6 fold. Further, the “fold increase in γ mRNA (maximal)” value in assay [3] (ZL 75 μM) is on record as 4.1 fold. The “fold decrease in BFU-E” value in assay [4] (ZL 0 vs 100 μM) is reported as 9.3 fold. The same compound had a BFU-E colony number in assay [4] (ZL 100 μM) of 10.1±2.4.
As to `NC(=O)NO` [HU, Hydroxyurea], the HbF in assay [5] was 19.4%. In assay [1], the “fold decrease in BFU-E colony number” value amounted to 21.3 fold and the “BFU-E Difference” value is given as 146.4 ± 9.1. Moreover, in assay [6], the BFU-E is given as 7.2. Further, the “fold increase in γ mRNA” value in assay [3] (HU 100 μM) is 2.7 fold.
